Measurements taken from the supplement of paper PMC11208160.

Assay: recombinant UMI read abundance after kanamycin selection (control-corrected) (log10(CPM+1)); higher = more efficient recombination; extreme values may be limits of the assay; sequences stand for … in AGTGCAGAGAAAATCGGCCAGTTTTCTCTGCCTGCAGTCCGCATGCCGTGGGACCCCTTGGGTTCTAACCTGTTGCCTAGATTTATGCAGCGGACTGCCTTTCTCCCAAAGTGATAAACCGG…AGGTTGGTTTCACT; site = the 11-nt donor
Procedure, shortened: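 After plating on IPTG (0.07 mM) plus kanamycin, or unselected, in two replicates, recombinant UMIs were PCR-amplified across the donor–target junction and sequenced. The cells were Escherichia coli co-electroporated with a UMI-tagged donor and donor-binding-loop pair library and a target plasmid with a fixed target and T7-inducible IS621 bridge recombinase. Values are log10(CPM+1), with CPM averaged over replicates and scaled by control-derived factors.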
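Also: IS621 bridge recombinase in Escherichia coli cells against a fixed T5 target plasmid.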

| Sequence | recombinant UMI read abundance (log10) |
| --- | --- |
| CCCTAGCCATGGACCGGTTTTCCCGGTAATCCGTATTTGCC (site CCCTAGGCTGG) | 0 |
| CCCTAGCCATGGACCGGTTTTCCCGGTAATCCGTATTTGCC (site CCCTAGTCTGG) | 1.15 |
| CCCTAGCCATGGACCGGTTTTCCCGGTAATCCGTATTTGCC (site CCCTATCCTGG) | 0 |
| CCCTAGCCATGGACCGGTTTTCCCGGTAATCCGTATTTGCC (site CCCTCGCCTGG) | 0 |
| CCCTAGCCATGGACCGGTTTTCCCGGTAATCCGTATTTGCC (site CCCTGGCCTGG) | 0 |
| CCCTAGCCATGGACCGGTTTTCCCGGTAATCCGTATTTGCC (site CCCTTGCCTGG) | 0 |
| CCCTAGCCATGGACCGGTTTTCCCGGTAATCCGTATTTGCC (site CCGTAGCCTGG) | 0 |
| CCCTAGCCATGGACCGGTTTTCCCGGTAATCCGTATTTGCC (site CCTTAGCCTGG) | 0 |
| CCCTAGCCATGGACCGGTTTTCCCGGTAATCCGTATTTGCC (site CGCTAGCCTGG) | 0 |
| CCCTAGCCATGGACCGGTTTTCCCGGTAATCCGTATTTGCC (site CTCTAGCCTGG) | 0 |
| CCCTAGCCATGGACCGGTTTTCCCGGTAATCCGTATTTGCC (site GCCTAGCCTGG) | 0 |
| CCCTAGCCATGGACCGGTTTTCCCGGTAATCCGTATTTGCC (site TCCTAGCCTGG) | 0 |
| CCCTAGGCATGGACCGGTTTTCCCGGTAATCCGTATTTGCC (site CCCTAGACTGG) | 0 |
| CCCTAGGCATGGACCGGTTTTCCCGGTAATCCGTATTTGCC (site CCCTAGCCTGG) | 0 |
| CCCTAGGCATGGACCGGTTTTCCCGGTAATCCGTATTTGCC (site CCCTAGGCTGG) | 0 |
| CCCTAGGCATGGACCGGTTTTCCCGGTAATCCGTATTTGCC (site CCCTAGTCTGG) | 0 |
| CCCTAGTCATGGACCGGTTTTCCCGGTAATCCGTATTTGCC (site CCCTAGACTGG) | 0.402 |
| CCCTAGTCATGGACCGGTTTTCCCGGTAATCCGTATTTGCC (site CCCTAGCCTGG) | 0 |
| CCCTAGTCATGGACCGGTTTTCCCGGTAATCCGTATTTGCC (site CCCTAGGCTGG) | 0 |

| Sequence | recombinant UMI read abundance (log10) |
| --- | --- |
| CCCTAGTCATGGACCGGTTTTCCCGGTAATCCGTATTTGCC (site CCCTAGTCTGG) | 1.23 |
| CCCTCAACATGGACCGGTTTTCCCGGTAATCCGTATTTGCA (site CCCTCAACTTG) | 0.377 |
| CCCTCTACATGGACCGGTTTTCCCGGTAATCCGTATTTGCT (site CCCTCTACTAG) | 1.58 |
| CCCTGTCCATGGACCGGTTTTCCCGGTAATCCGTATTTGCA (site CCCAGTCCTTG) | 0 |
| CCCTGTCCATGGACCGGTTTTCCCGGTAATCCGTATTTGCA (site CCCCGTCCTTG) | 0.0428 |
| CCCTGTCCATGGACCGGTTTTCCCGGTAATCCGTATTTGCA (site CCCGGTCCTTG) | 0 |
| CCCTGTCCATGGACCGGTTTTCCCGGTAATCCGTATTTGCA (site CCCTGTCCTTG) | 0.00678 |
| CCCTTAGCATGGACCGGTTTTCCCGGTAATCCGTATTTGTG (site CCATTAGCTCA) | 0.0224 |
| CCCTTAGCATGGACCGGTTTTCCCGGTAATCCGTATTTGTG (site CCCTTAGCTCA) | 0.0472 |
| CCCTTAGCATGGACCGGTTTTCCCGGTAATCCGTATTTGTG (site CCGTTAGCTCA) | 0.00331 |
| CCCTTAGCATGGACCGGTTTTCCCGGTAATCCGTATTTGTG (site CCTTTAGCTCA) | 0.0232 |
| CCCTTCTCATGGACCGGTTTTCCCGGTAATCCGTATTTGGG (site ACCTTCTCTCC) | 0.00611 |
| CCCTTCTCATGGACCGGTTTTCCCGGTAATCCGTATTTGGG (site CACTTCTCTCC) | 0.00776 |
| CCCTTCTCATGGACCGGTTTTCCCGGTAATCCGTATTTGGG (site CCATTCTCTCC) | 0 |
| CCCTTCTCATGGACCGGTTTTCCCGGTAATCCGTATTTGGG (site CCCATCTCTCC) | 0.0128 |
| CCCTTCTCATGGACCGGTTTTCCCGGTAATCCGTATTTGGG (site CCCCTCTCTCC) | 0.0125 |
| CCCTTCTCATGGACCGGTTTTCCCGGTAATCCGTATTTGGG (site CCCGTCTCTCC) | 0.00385 |
| CCCTTCTCATGGACCGGTTTTCCCGGTAATCCGTATTTGGG (site CCCTACTCTCC) | 0.0199 |
| CCCTTCTCATGGACCGGTTTTCCCGGTAATCCGTATTTGGG (site CCCTCCTCTCC) | 0.0129 |
